Measurements from US12521329B2, “Antimicrobial mixture containing 4-(3-ethoxy-4-hydroxyphenyl) butan-2-one, and cosmetic composition containing same” (L'OREAL, priority 2017, dated 2026).
One block for each molecule: values may come before it.

Key:
Experiment in all cases: MIC / synergy (FIC index) microplate growth test, optical density 620 nm
Assay type in all cases: cell-based
[1] = tested on: Staphylococcus aureus ATCC 6538; settings: Example 1
Experimental: The microbial strain Staphylococcus aureus ATCC 6538 and a double-concentration nutrient broth liquid culture medium were used.
(§1) A 96-well microplate at an incubation temperature of 32.5° C. is used.
(§2) The incubation time of the microplate for the abovementioned two strains is: • from 18 to 24 h aerobically for Candida albicans and Staphylococcus aureus. • from 24 hours to 48 hours aerobically for Aspergillus niger Tests
(§3) A 10% (weight/volume) stock solution was prepared by mixing 1 g of compound in 9 ml of aqueous 1‰ agar solution. Successive dilutions were made with the 1‰ agar solution.
(§4) 50 μl of each of the daughter solutions obtained containing compound A or B are added to the microplate wells. 100 μl of Sabouraud liquid nutrient broth inoculated at double concentration with the Candida albicans strain and 50 μl of aqueous 1‰ agar solution are also added thereto.
as §4, with “and 50 μl of each of the daughter solutions obtained containing compound” for “or”, “strain” for “strain and 50 μl of aqueous 1‰ agar solution”
(§5) A positive microbial growth control was also prepared. The positive microbial growth control corresponds to the mixture of 100 μl of aqueous 1‰ agar solution with 100 μl of Sabouraud liquid nutrient broth inoculated at double concentration with the Candida albicans strain in the absence of compounds A and B.
(§6) An absorbance control was performed in parallel on compounds A and B alone. This control corresponds to 100 μl of double concentration sterile Sabouraud liquid nutrient broth+100 μl of double concentration compound A or B.
(§7) In the three cases (absorbance control, growth control and test), the final volume present in each of the microplate wells is 200 μl.
(§8) In the two cases (test and control), the inoculum represents the concentration of the Candida albicans strain present in the final volume of the wells (200 μl) and is between 2 and 6×10^5 cfu/ml of Candida albicans.
(§9) The minimum inhibitory concentration (MIC) of each compound A and B alone and in combination was determined in a known manner by means of optical density measurements at a wavelength of 620 nm.
The test as described above (tests, absorbance control and growth control) was performed again to test the combination A+B on the Staphylococcus aureus strain and on the Aspergillus niger strain as appropriate.

[2] = tested on: Aspergillus niger ATCC 6275; settings: Example 5
From the text: FIC Index=(MIC of A with B/MIC of A)+(MIC of B with A/MIC of B) with: • MIC of A with B: minimum concentration of product A in the combination A+B which makes it possible to obtain an inhibitory effect; • MIC of B with A: minimum concentration of product B in the combination A+B which makes it possible to obtain an inhibitory effect; • MIC of A: minimum inhibitory concentration of product A alone; • MIC of B: minimum inhibitory concentration of product B alone. […] A 96-well microplate at an incubation temperature of 32.5° C. is used. The incubation time of the microplate for the abovementioned two strains is: • from 18 to 24 h aerobically for Candida albicans and Staphylococcus aureus. • from 24 hours to 48 hours aerobically for Aspergillus niger Tests […] Successive dilutions were made with the 1‰ agar solution. 50 μl of each of the daughter solutions obtained containing compound A or B are added to the microplate wells. 100 μl of Sabouraud liquid nutrient broth inoculated at double concentration with the Candida albicans strain and 50 μl of aqueous 1‰ agar solution are also added thereto. 50 μl of each of the daughter solutions obtained containing compound A and 50 μl of each of the daughter solutions obtained containing compound B are added to the microplate wells. 100 μl of Sabouraud liquid nutrient broth inoculated at double concentration with the Candida albicans strain are also added thereto. A positive microbial growth control was also prepared. […] An absorbance control was performed in parallel on compounds A and B alone. This control corresponds to 100 μl of double concentration sterile Sabouraud liquid nutrient broth+100 μl of double concentration compound A or B. […] In the two cases (test and control), the inoculum represents the concentration of the Candida albicans strain present in the final volume of the wells (200 μl) and is between 2 and 6×10^5 cfu/ml of Candida albicans. […] The test as described above (tests, absorbance control and growth control) was performed again to test the combination A+B on the Staphylococcus aureus strain and on the Aspergillus niger strain as appropriate.

[3] = tested on: Candida albicans ATCC 10231
Experimental: The microbial strain Candida albicans ATCC 10231 and a double-concentration Sabouraud broth liquid culture medium were used.
as §1, §2, §3, §4
as §4, with “and 50 μl of each of the daughter solutions obtained containing compound” for “or”, “strain” for “strain and 50 μl of aqueous 1‰ agar solution”
as §5, §6, §7, §8, §9

% MIC of A alone ([1]; growth <= 20%, or even < 25%): 0.5%
% MIC of A alone [2]: 0.25%
% MIC of A alone ([3]; Example 1, growth <= 20%, or even < 25%): 0.2%
% MIC A ([3]; Example 2, A alone): 0.1%
% MIC of A alone ([3]; Example 3): 0.2%
% MIC of A alone ([3]; Example 4): 0.2%
% MIC of A alone ([3]; Example 5): 0.1%
Structure (SMILES): CCOc1cc(CCC(C)=O)ccc1O [A, 4-(3-ethoxy-4-hydroxyphenyl)butan-2-one]
microbial growth percentage ([1]; 0.0625 weight % A alone): 87%
microbial growth percentage ([1]; 0.125 weight % A alone): 77%
microbial growth percentage ([1]; 0.25 weight % A alone): 78%
microbial growth percentage ([1]; 0.5 weight % A alone): 4%
microbial growth percentage ([2]; 0.0625 weight % A alone): 85%
microbial growth percentage ([2]; 0.125 weight % A alone): 43%
microbial growth percentage ([2]; 0.25 weight % A alone): 4%
microbial growth percentage ([3]; Example 1, 0.025 weight % A alone): 84%
microbial growth percentage ([3]; Example 1, 0.05 weight % A alone): 71%
microbial growth percentage ([3]; Example 1, 0.1 weight % A alone): 48%
microbial growth percentage ([3]; Example 1, 0.2 weight % A alone): 10%
microbial growth percentage ([3]; Example 2, 0.025 weight % A alone): 52%
microbial growth percentage ([3]; Example 2, 0.05 weight % A alone): 31%
microbial growth percentage ([3]; Example 2, 0.1 weight % A alone): 18%
microbial growth percentage ([3]; Example 3, 0.025 weight % A alone): 71%
microbial growth percentage ([3]; Example 3, 0.05 weight % A alone): 65%
microbial growth percentage ([3]; Example 3, 0.1 weight % A alone): 44%
microbial growth percentage ([3]; Example 3, 0.2 weight % A alone): 4%
microbial growth percentage ([3]; Example 4, 0.025 weight % A alone): 83%
microbial growth percentage ([3]; Example 4, 0.05 weight % A alone): 71%
microbial growth percentage ([3]; Example 4, 0.1 weight % A alone): 46%
microbial growth percentage ([3]; Example 4, 0.2 weight % A alone): 6%
microbial growth percentage ([3]; Example 5, 0.025 weight % A alone): 56%
microbial growth percentage ([3]; Example 5, 0.05 weight % A alone): 39%
microbial growth percentage ([3]; Example 5, 0.1 weight % A alone): 17%

% MIC of B4 alone ([3]; Example 4): 0.005%
Structure (SMILES): N=C(N)c1ccc(OCCCCCCOc2ccc(C(=N)N)cc2)cc1 [B4, hexamidine diisethionate, reference compound]
microbial growth percentage ([3]; Example 4, 0.00125 weight % B4 alone): 78%
microbial growth percentage ([3]; Example 4, 0.0025 weight % B4 alone): 59%
microbial growth percentage ([3]; Example 4, 0.005 weight % B4 alone): 3%

Structure (SMILES): Cc1cc(CC(C)CC(C)(C)C)n(O)c(=O)c1.NCCO (centres unmarked) [B2, piroctone olamine, reference compound]
microbial growth percentage ([3]; Example 2, 0.00125 weight % B2 alone): 35%
microbial growth percentage ([3]; Example 2, 0.0025 weight % B2 alone): 0%

Structure (SMILES): O=C1C(N(CO)C(=O)NCO)N(CO)C(=O)N1CO (centres unmarked) [B3, 1-[1,3-bis(hydroxymethyl)-2,5-dioxoimidazolidin-4-yl]-1,3-bis(hydroxymethyl)urea]
% MIC of B3 alone ([3]; Example 3): 0.125%
microbial growth percentage ([3]; Example 3, 0.0625 weight % B3 alone): 55%
microbial growth percentage ([3]; Example 3, 0.125 weight % B3 alone): 10%
